Earlier results on two molecules are cited in article PMC8781256, “The Influence of Fed State Lipolysis Inhibition on the Intraluminal Behaviour and Absorption of Fenofibrate from a Lipid-Based Formulation” (Pharmaceutics, 2022).

Data set [1] concerns human pancreatic lipase (HPL). Also on record: method as in PMID 11408251. To be noted: after intake of solid and liquid meals.
On the set-up of data set [2]: method as in PMID 8626884. To be noted: acts locally in the GI tract.
Data set [3] has as its system human gastric lipase (HGL). Also noted: method as in PMID 11408251. To be noted: after intake of solid and liquid meals.

On to `CC(C)OC(=O)C(C)(C)Oc1ccc(C(=O)c2ccc(Cl)cc2)cc1` [fenofibrate], for which the “log P” value is 5.21.
On to `CCCCCCCCCCC[C@@H](C[C@@H]1OC(=O)[C@H]1CCCCCC)OC(=O)[C@H](CC(C)C)NC=O` [orlistat, tetrahydrolipstatin], for which the HPL enzyme inhibition in data set [1] was 51.2–82.6%. The systemic uptake entry in data set [2] was “negligible”. Moreover, the HGL enzyme inhibition in data set [3] is listed as 46.6–91.4%.

By log P is commonly meant a log measure of how a compound divides between an organic and an aqueous phase.
